According to BindingDB's records for doi:10.7270/Q23R0R8T (Burnham Center For Chemical Genomics, 2010):

Target: Nucleotide-binding oligomerization domain-containing protein 2 (Homo sapiens, UniProt Q9HC29)
Test: NOD2 signaling inhibitors in MDP-stimulated cells, cell-based, uHTS, luminescence (AID 2001)

Nucleotide-binding oligomerization domain-containing protein 2, sequence (Q9HC29 whole entry, the tested form may be a part): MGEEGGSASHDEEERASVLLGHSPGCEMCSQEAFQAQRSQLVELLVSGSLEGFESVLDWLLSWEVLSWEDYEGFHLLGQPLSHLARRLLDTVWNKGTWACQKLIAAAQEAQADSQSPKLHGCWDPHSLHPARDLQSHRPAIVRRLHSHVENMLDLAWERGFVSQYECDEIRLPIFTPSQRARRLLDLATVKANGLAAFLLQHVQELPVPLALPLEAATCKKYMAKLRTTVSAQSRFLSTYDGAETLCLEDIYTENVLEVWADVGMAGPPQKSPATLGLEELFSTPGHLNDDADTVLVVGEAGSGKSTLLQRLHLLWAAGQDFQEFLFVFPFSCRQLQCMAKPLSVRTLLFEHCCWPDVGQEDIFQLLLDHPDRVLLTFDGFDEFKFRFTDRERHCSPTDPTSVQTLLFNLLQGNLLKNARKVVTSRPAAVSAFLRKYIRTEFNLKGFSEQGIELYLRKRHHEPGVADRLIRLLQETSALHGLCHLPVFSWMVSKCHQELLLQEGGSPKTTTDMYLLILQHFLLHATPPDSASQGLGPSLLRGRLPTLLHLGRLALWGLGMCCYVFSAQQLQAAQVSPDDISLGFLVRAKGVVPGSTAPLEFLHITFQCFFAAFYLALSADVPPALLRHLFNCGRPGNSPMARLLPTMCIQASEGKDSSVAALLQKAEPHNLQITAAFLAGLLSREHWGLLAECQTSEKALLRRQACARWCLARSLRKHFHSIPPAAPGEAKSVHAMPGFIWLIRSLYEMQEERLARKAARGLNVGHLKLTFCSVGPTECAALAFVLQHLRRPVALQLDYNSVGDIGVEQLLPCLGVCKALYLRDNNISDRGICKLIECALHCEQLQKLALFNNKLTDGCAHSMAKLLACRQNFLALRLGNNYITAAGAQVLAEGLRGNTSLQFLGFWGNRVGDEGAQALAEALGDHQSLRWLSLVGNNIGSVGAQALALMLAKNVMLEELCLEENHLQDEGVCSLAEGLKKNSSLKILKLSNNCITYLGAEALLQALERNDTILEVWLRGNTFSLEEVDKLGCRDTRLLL

**Q.** With `C=CCN1C(=O)C(=NNC(=S)Nc2cccc(OC)c2)c2ccccc21` [SMR000132469] as the compound, how does the IC50 read?
**A.** 1.76 µM

**Q.** For `O=C1C(=O)N(c2nccs2)C(c2ccccc2)C1C(=O)c1ccc2c(c1)OCCO2` (stereo unspecified), which IC50 is on record?
**A.** 18.6 µM

**Q.** How did the IC50 turn out when `Cc1ccc(O)c(/N=C/C2=CC(Cc3ccccc3)C=C([N+](=O)[O-])C2=O)c1` (stereo unspecified) [(6E)-6-[[(5-methyl-2-oxidanyl-phenyl)amino]methylidene]-2-nitro-4-(phenylmethyl)cyclohexa-2,4-dien-1-one] was run?
**A.** 12.4 µM

**Q.** `CCCOC1=CC(=O)C(C=NNC(=S)Nc2ccccc2[N+](=O)[O-])C=C1` (stereo unspecified) [1-(2-nitrophenyl)-3-[[(E)-(6-oxo-4-propoxy-1-cyclohexa-2,4-dienylidene)methyl]amino]thiourea] was tested. Which IC50 did it give?
**A.** 0.233 µM

**Q.** For `Cc1cc(CN=Nc2nc(N)ncc2[N+](=O)[O-])c(C)n1-c1ccccc1F` [MLS000392273], which IC50 is on record?
**A.** 6.02 µM

**Q.** `COc1ccc(NS(=O)(=O)c2ccc(N=NC(C)c3ccncc3)c([N+](=O)[O-])c2)cc1` (stereo unspecified) [MLS000393523] was tested. Which IC50 did it give?
**A.** 2.11 µM

**Q.** How did the IC50 turn out when `Cc1cc(N=NCc2ccccc2[N+](=O)[O-])nc(-n2nc(C)cc2C)n1` [SMR000426946] was run?
**A.** 6.55 µM

**Q.** How did the IC50 turn out when `CCCCCCC1=Cc2c/c(=C3/NN=C(c4ccccc4OC)O3)c(=O)oc2=CC1=O` [6-Hexyl-7-hydroxy-3-[5-(2-methoxy-phenyl)-[1,3,4]oxadiazol-2-yl]-chromen-2-one] was run?
**A.** 8.48 µM

**Q.** For `Cc1cc(CN=Nc2ncnc(N)c2[N+](=O)[O-])c(C)n1-c1ccccc1`, which IC50 is on record?
**A.** 6.1 µM

**Q.** For `CCCCCCC1=Cc2c/c(=C3/NN/C(=C4/C=CC=CC4=O)O3)c(=O)oc2=CC1=O` [(3E)-6-hexyl-3-[(5E)-5-(6-oxocyclohexa-2,4-dien-1-ylidene)-1,3,4-oxadiazolidin-2-ylidene]chromene-2,7-dione], which IC50 is on record?
**A.** 4.36 µM

**Q.** For `C=CCN1C(=O)C(=NNC(=S)Nc2cccc(C)c2)c2ccccc21` [1-(3-methylphenyl)-3-[(Z)-(2-oxidanylidene-1-prop-2-enyl-indol-3-ylidene)amino]thiourea], which IC50 is on record?
**A.** 1.18 µM

**Q.** With `Cc1ccc(C)c(SCC(=O)OCC(=O)C(C#N)c2nc3ccccc3[nH]2)c1` (stereo unspecified) [MLS000392255] as the compound, how does the IC50 read?
**A.** 4.92 µM

**Q.** With `Cc1cc(SCC(=O)OCC(=O)C(C#N)c2nc3ccccc3[nH]2)c(C)cc1Br` (stereo unspecified) as the compound, how does the IC50 read?
**A.** 5.41 µM

**Q.** `CN1C(=O)C(=NNC(=S)Nc2ccccc2F)c2cc(S(=O)(=O)N3CCOCC3)ccc21` [SMR000314843] was tested. Which IC50 did it give?
**A.** 9.77 µM

**Q.** For `CCOc1ccc(-c2csc(/C(C#N)=C/C3C=CC(=O)C([N+](=O)[O-])=C3)n2)cc1` (stereo unspecified) [SMR000237723], which IC50 is on record?
**A.** 2.58 µM

**Q.** With `COc1cc(CN=Nc2nc3c(c(=O)n(C)c(=O)n3C)n2Cc2ccccc2)ccc1OC(=O)c1ccco1` [[4-[[(7-benzyl-1,3-dimethyl-2,6-dioxopurin-8-yl)hydrazinylidene]methyl]-2-methoxyphenyl] furan-2-carboxylate] as the compound, how does the IC50 read?
**A.** 5.98 µM
